Test results reported in patent US20240391903A1, “AUTOTAXIN-INHIBITORS” (UNIVERSITAET MUENSTER, priority 2021, published 2024).
Entries after “also recorded” stand apart in the source; their conditions may differ.

What was measured:
[1] = mouse model of stroke; cited from earlier work
[2] = Cytotoxicity testing in HeLa cells (methylene blue); assay type: cell-based; conditions: human, HeLa cells (DSM ACC 57), 72 hours incubation
Experimental: Hela cells (DSM ACC 57) were grown in RPMI 1640 medium supplemented with 10 mL·L^−1 ultraglutamine 1 (CAMBREX 17-605E/U1), 550 μL·L^−1 gentamicin sulfate (50 mg·mL^−1, CAMBREX 17-518Z) and 10% heat inactivated fetal bovine serum (GIBCO Life Technologies 10270-106) at 37° C. in a 5% CO2 atmosphere in high density polyethylene flasks (NUNC 156340). Cells were pre-incubated for 48 hours in the absence of test substances. Subsequently, Hela cells were incubated with serial dilutions of the test substances in 96 well microplates for 72 hours at 37° C. in a humidified atmosphere and 5% CO2. After incubation, the cytolytic effect of compounds was analyzed relative to the negative control (DMSO) using a colorimetric assay (methylene blue). The adherent Hela cells were fixed by glutaraldehyde (MERCK 1.04239.0250) and stained with a 0.05% solution of methylene blue (SERVA 29198) for 15 min. After gentle rinsing, the stain was eluted through addition of 0.2 mL hydrochloric acid (0.33 M) to each well. The absorptions were measured at 660 nm in a SUNRISE microplate reader (TECAN). Four replicates were assayed for each substance. […] All calculations of CC50 values were performed with the software Magellan (TECAN).

[3] = molecular target: T1, ATX (Homo sapiens, UniProt Q13822); assay: ATX activity assay (Autotaxin inhibitor test kit, fluorescent ATX substrate); assay type: biochemical; conditions: for IC50: read-out: IC50 (nM) ATX inhibition
T1 construct: purchased
Experimental: (§1) A solution of 10 mM of the inhibitor to test in DMSO was received. Adding 40.5 μL of this solution to 959.5 μL DMSO gave a concentration of 405 μM. […] For a threefold dilution series 800 μL of 18% DMSO in water were dispensed in twelve 1.5 mL test tubes. 400 μL of the 75.9 μM inhibitor solution were added to the first vial and the solution was vortexed. For every dilution step 400 μL of the corresponding previous dilution step were transferred and mixed by vortexing. The obtained concentrations were 7594 nM, 2531 nM, 844 nM, 281 nM, 94 nM, 31 nM, 10 nM, 3.47 nM, 1.16 nM, 0.39 nM, 0.13 nM, 0.043 nM, 0.014 nM. The eight concentration steps from 31 nM to 0.014 nM were used in the assay.
The assay was performed according to the attached manual of the assay kit. In brief 80 μL reaction buffer containing ATX, 10 μL of the dilution series from the inhibitor and 10 μL fluorescent ATX substrate solution were mixed in a well of a 96 well plate. Cleavage of the substrate by ATX causes increase in fluorescence (excitation 485 nm, emission 528 nm), which is measured by a plate reader in 1 min intervals. The increase of fluorescence between 5 min and 15 min was used to calculate the reaction rate.
The autotaxin reaction was performed in four parallel replicates for the target inhibitor and two replicates for the positive control BrP-LPA. The slope of the increase in fluorescence was calculated by Excel using the “slope” function. The IC50 was calculated by GraphPad Prism using the nolinear regression (curve fit): “log (inhibitor) vs. response with variable slope (four parameters)”.
The autotaxin reaction was performed in three parallel replicates for the target inhibitors MJK2234001 and MJK2234002 and two replicates for MJK2134025 and two replicates for the positive control BrP-LPA. All ATX-tests were performed using the protocol as described above with minor modifications. Those modifications refer to the dilution principle:
as §1, with “The obtained concentrations were 7594 nM, 2531 nM, 844 nM, 281 nM, 94 nM, 31 nM, 10 nM, 3.47 nM, 1.16 nM, 0.39 nM, 0.13 nM, 0.043 nM, 0.014 nM.” left out, “300” for “31”, “0.14” for “0.014”, “assay. During the assay, the final concentration of the inhibitor during the reaction was 1/10th of the added inhibitor solution.” for “assay.”

[4] = Microsomal stability assay; assay type: in vitro ADME; conditions: human liver microsomes
Experimental: A microsomal stability assay was performed according to an internal standard procedure. Positive control compound diclofenac and three test items were freshly prepared as sub-dilutions in phosphate buffer (100 mM, pH 7.4) at concentrations of 200 μM and 20 μM, respectively. All incubations were conducted in triplicate in glass screw neck vials (1.5 mL, flat bottom, Macherey-Nagel, Düren, Germany) on a Thermomixer C (Eppendorf, Germany) at 37° C. and 1500 rpm. The incubation mixtures contained 270 μL human liver microsomes (HLM, 1.1 mg·mL^−1, UltraPool HLM 150, Corning B.V. Life Science, Amsterdam, the Netherlands), 270 μL NADP regeneration mix (1 mM NADP, 5 mM glucose-6-phosphate, 5 units·mL^−1 glucose-6-phosphate dehydrogenase and 5 mM MgCl2) and 30 μL phosphate buffer to reach a total volume of 570 μL. Negative controls were performed with heat inactivated (80° C., 30 min) HLM solution. Reactions were initiated by addition of diclofenac or the test item solution (30 μL). Aliquots of 100 μL were taken at 1, 15, 30, 60, and 90 minutes and immediately processed with 100 μL acetonitrile at 4° C. to terminate the reactions, and shaken for 2 minutes at 4° C. with 1600 rpm. The mixed samples were further transferred to 15 mm glass inserts (0.2 mL/6×31 mm, Macherey-Nagel, Düren, Germany) fitted in glass screw neck vials, and centrifuged for 15 min at 4° C. with 4000 rpm. The supernatants were withdrawn and subjected to high resolution mass spectrometry analysis without further treatment.
Samples were analyzed using a Vanquish Horizon UHPLC system (Thermo Fisher Scientific, Bremen, Germany) coupled to a Thermo Scientific QExactive HF-X Orbitrap mass spectrometer (Thermo Fisher Scientific, Bremen, Germany) using a UPLC column (ACQUITY HSS T3, Waters, 1.8 μm particle size, 2.1×50 mm dimensions). The column temperature was maintained at 25° C., and the samples were kept at 4° C. […]
Microsomal stability was determined in analogy to the method as described above, but as single determinations (FIG. 18).

[5] = Pharmacokinetic evaluation in mouse plasma after oral gavage; assay type: in vivo; conditions: 30 mg/kg oral, based on mean concentrations
Experimental: MJK2134025 and GLPG 1690 were each administered as wet milled aqueous micro-suspensions at a concentration of 3 mg/g in 1% carboxymethyl cellulose and 0.5% Tween 80. Dosing of the formulations was performed at 10.0 g/kg body weight, corresponding to 30 mg/kg body weight. The food intake was measured (FIG. 19).
Prior blood collection, minicollect K3 EDTA vials were opened at room temperature to dry the EDTA in order to avoid blood dilution by the fluid content. Following oral gavage of the test formulations tail vein blood samples were taken at 15 min, 30 min, 1 h, 2 h, 4 h and 8 h. Samples were collected in dried minicollect K3 EDTA plasma vials. The blood samples (20-25 μl) were mixed and immediately cooled to 4° C. Subsequently, the samples were centrifuged at 3000 g for 5-10 min. Supernatants were collected in Eppendorf tubes and frozen and stored at −80° C. until further processing.
MJK2134025 and GLPG1690 were quantified in mouse plasma samples by LC-MS. Frozen mouse plasma samples were thawed on ice. Samples were then precipitated at a ratio of 1:10 (v:v) with 5 ng mL^−1 17:0 LPA in methanol (as an internal standard) in a 1.5 mL Eppendorf tube with microinsert (clear glass, flat bottom, 0.2 mL, 31×6 mm, LABSOLUTE, Germany). The Eppendorf tubes were mixed for 2 minutes at 4° C. and 1600 rpm in a Thermomixer C (Eppendorf, Germany). The Eppendorf tubes were centrifuged at 4° C. and 16.1 rcf for 2 minutes. The supernatant was transferred to HPLC vials for UHPLC-HRMS measurements as described in the following section. Calibration standards of MJK2134025 and GLPG1690 were prepared by adding the reference substances of MJK2134025 and GLPG1690 to blank samples (mouse plasma without substance). The calibration curve was generated at 7 concentrations and with a weighting of 1/×. The following concentrations were used for the stock solutions: 0.1, 0.5, 1, 2.5, 10, 50 and 200 μg·mL^−1 in methanol. To prepare the 200 μg·mL^−1 stock solution, 0.04 mL of 1 mg·mL^−1 MJK2134025 and 0.04 mL of 1 mg·mL^−1 GLPG1690 were mixed with 0.12 mL methanol. These stock solutions (5 μL each) were added to the blank plasma (45 μL). The sample was then mixed for 2 minutes at 4° C. and 1600 rpm in Thermomixer C (Eppendorf, Germany). Subsequent sample processing was the same as for the samples quantified. All quantifications should be considered as preliminary estimates as stable isotope-labeled reference substances were not available and individual matrix effects cannot be excluded.
All processed plasma samples were analyzed with a Vanquish Horizon UHPLC system (Thermo Fisher Scientific, Bremen, Germany) coupled to a Thermo Scientific QExactive HF-X Orbitrap mass spectrometer (Thermo Fisher Scientific, Bremen, Germany) using a UHPLC column (Luna R Omega 1.6 μm C18 100 Å, 100*2.1 mm). A solution of 5 mM ammonium formate in water containing 0.1% formic acid (eluent A) and a 5 mM solution of ammonium formate in acetonitrile: H2O (95:5, % v:v) containing 0.1% formic acid (eluent B) were used as the mobile phase. A flow rate of 0.3 mL/min was used under the following gradient conditions: 30% eluent B for 1 minute, then linear increase to 98% in 14 minutes, holding 98% of eluent B for 5 minutes, and then decreasing to 30% in 0.5 minutes, followed by isocratic holding for 3.5 minutes. The column temperature was maintained at 25° C. Samples were kept at 4° C., and 8 μL was injected into the UHPLC-MS. The QExactive HF-X Orbitrap was acquired at a resolution of 60000 at full half-width and in both positive and negative modes. The following HESI source parameters were used: capillary voltage of 3.8 kV (negative mode) and 3.5 kV (positive mode), capillary temperature of 320° C., funnel RF level 40, sheath gas pressure 49 (N2>95%), auxiliary gas 10 (N2>95%), auxiliary gas heater temperature 300° C. The automatic gain control (AGC) was set to 10E+6. A scan range of m/z 400 to 600 was selected, and the injection time was set to 200 ms. […]

SMILES	IC50 [3] [nM]	AUC [5] [µg·h/mL]	Cmax [5] [ng/mL]	Tmax [5] [h]	infarct size and stroke-related motor deficits [1]	CC50 at 72 h [2] [nM]	ATX-inhibitory activity (comparison in words) [3]	microsomal stability / metabolism (in words) [4]
O=C(CCN1CCN(C(=O)OCc2cc(Cl)cc(Cl)c2)CC1)c1ccc2[nH]c(=O)oc2c1 [PF-8380]	–	–	–	–	significantly reduced	–	–	–
O=C(CS(=O)(=O)c1ccc2nn[nH]c2c1)N1CCN(C(=O)OCc2cc(C(F)(F)F)cc(C(F)(F)F)c2)CC1 [MJK2234002, 3,5-bis(trifluoromethyl)benzyl 4-(2-((1H-benzo[d][1,2,3]triazol-6-yl)sulfonyl)acetyl)piperazine-1-carboxylate]	2	–	–	–	–	67800	almost equal ATX-inhibitory activity	almost equally metabolically stable and superior to all other compounds tested
O=C(OCc1cc(C(F)(F)F)cc(C(F)(F)F)c1)N1CCN(CCS(=O)(=O)c2ccc3nn[nH]c3c2)CC1 [MJK2134025, 3,5-bis(trifluoromethyl)benzyl 4-(2-((1H-benzo[d][1,2,3]triazol-6-yl)sulfonyl)ethyl)piperazine-1-carboxylate]	1.8	303	56400	2	–	45100	almost equal ATX-inhibitory activity; also recorded: comparable ATX-inhibtion as PF8380	almost equally metabolically stable and superior to all other compounds tested; also recorded: favorable decay time course

Continued, in another order:

IC50 [3] [nM]	AUC [5] [µg·h/mL]	Cmax [5] [ng/mL]	Tmax [5] [h]	SMILES	infarct size and stroke-related motor deficits [1]	CC50 at 72 h [2] [nM]	ATX-inhibitory activity (comparison in words) [3]	microsomal stability / metabolism (in words) [4]
4	–	–	–	O=C(CSc1ccc2nn[nH]c2c1)N1CCN(C(=O)OCc2cc(C(F)(F)F)cc(C(F)(F)F)c2)CC1 [MJK2234001, 3,5-bis(trifluoromethyl)benzyl 4-(2-((1H-benzo[d][1,2,3]triazol-6-yl)thio)acetyl)piperazine-1-carboxylate]	–	6200	–	metabolized at a comparable speed as the experimental drug GLPG 1690
–	119	35200	1	CCc1nc2c(C)cc(N3CCN(CC(=O)N4CC(O)C4)CC3)cn2c1N(C)c1nc(-c2ccc(F)cc2)c(C#N)s1 [GLPG1690, reference compound]	–	–	–	–
